From patent US12472221B2, “Composition for inhibiting osteoclasts containing agastache rugosa extract as active ingredient, and use thereof” (Korea Institute of Oriental Medicine, priority 2019, dated 2025)

Assays:
[1] = system: bone marrow cell-derived macrophages (BMMs); assay: Cell viability of osteoclast progenitor cells (CCK-8); type: cell-based, mice; details: 5 and 10 μg/ml, 2 days
Protocol: Specifically, 1.2×10^4 pieces of bone marrow cell-derived macrophages (BMMs) were placed in per well of a 96-well plate, and then cultured for 2 days in a medium containing M-CSF (60 ng/ […] ) in which hot water extract of Agastache rugosa extract (WEAR; 5, 10, 20, 33, 100 and 200 μg/ml), ethanol extract of Agastache rugosa (EEAR; 10, 33 and 100 μg/ml) or isoagastachoside (5 and 10 μg/ml) samples were added. Cell viability was determined by measuring absorbance at 450 nm using Cell counting Kit-8 (CCK-8, Dojindo Inc.), percentage of untreated controls and data are presented as mean±standard deviation, and statistical analysis was performed using one-way ANOVA with Dunnett test, **p<0.01.

[2] = system: differentiation of bone marrow cell-derived macrophages (BMMs) into osteoclasts; assay: Osteoclast differentiation of bone marrow cell-derived macrophages (M-CSF/RANKL, TRAP staining, osteoclast count); type: cell-based, mice; details: compared with WEAR at the same concentration
Protocol: Specifically, bone marrow cells of mice were cultured in α-MEM medium containing M-CSF (60 ng/ml) and 10% FBS for 3 days to obtain bone marrow cell-derived macrophages (BMMs), which were used as osteoclast progenitor cells. To generate osteoclasts, 1×10^4 pieces of the obtained BMMs were placed in per well of a 96-well plate, cultured for 4 days in a medium containing M-CSF (60 ng/ml) and RANKL (50 ng/ml), and the BMM were treated with hot water extract of Agastache rugosa (WEAR; 10, 33, 100, 200 μg/ml) or ethanol extract of Agastache rugosa (EEAR; 10, 33, 100 μg/ml) under the same culture condition. After fixing the cells with 10% formalin, TRAP (Tartrate-resistant acid phosphatase) staining was performed using naphthol AS-MS phosphate and Fast red violet LB salt, and TRAP-positive cells having three or more nuclei (osteoclasts) were counted. Data are presented as mean±standard deviation, and statistical analysis was performed using one-way ANOVA with Dunnett test, **p<0.01.
IC50 (inhibitory concentration 50), the concentration showing 50% inhibition efficiency, was calculated using PraphPad Prism software.
Specifically, WEAR-PO, WEAR-ED, P0-3 kDA Fx, P0-10 kDA Fx, P0-30 kDA Fx, P0-100 kDA Fx, P0-300 kDA Fx […], respectively, and the osteoclast differentiation inhibitory effect was assessed in the same manner as in Example <3-1>.

In the case of `COc1ccc(-c2cc(=O)c3c(O)cc(O[C@@H]4O[C@H](CO)[C@@H](O)[C@H](O)[C@H]4OC(C)=O)cc3o2)cc1` [isoagastachoside], the “effect on cell survival” value [1] is reported as “no effect in cell survival”, the “inhibitory effect on osteoclast differentiation (in words)” value ([2]; 10 μg/ml) is reported as “inhibited osteoclast differentiation very significantly compared to WEAR at the same concentration” and the “inhibitory effect on osteoclast differentiation (in words)” value ([2]; 5 and 10 μg/ml) is reported as “better inhibitory effect on osteoclast differentiation than WEAR at the same concentration”.
